Data: US20250195521A1 (Revolution Medicines, Inc., priority 2020, published 2025)
Read-outs that look alike come from different tables or passages of the source.

Tests used:
[1] = molecular target: K-Ras G12C(GMP-PNP) binding to BRAF RBD (Homo sapiens (Human), UniProt P01116+P62937, G12C); assay: Disruption of BRAF RBD interaction with K-Ras (FRET / MOA assay), K-Ras G12C; type: biochemical
Source text: Note—The following protocol describes a procedure for monitoring disruption of K-Ras G12C(GMP-PNP) binding to BRAF^RBD by a compound of the invention. This protocol may also be executed substituting other Ras proteins or nucleotides.
The purpose of this biochemical assay was to measure the ability of test compounds to facilitate ternary complex formation between a nucleotide-loaded K-Ras isoform and Cyclophilin A; the resulting ternary complex disrupts binding to a BRAF^RBD construct, inhibiting K-Ras signaling through a RAF effector. Data is reported as IC50 values.
Compound was present in plate wells as a 10-point 3-fold dilution series starting at a final concentration of 30 μM. After incubation at 25° C. for 3 hours, a mixture of Anti-His Eu—W1024 and anti-GST allophycocyanin was then added to assay sample wells at final concentrations of 10 nM and 50 nM, respectively, and the reaction incubated for an additional 1.5 hours. […] Compounds that facilitate disruption of a K-Ras: RAF complex were identified as those eliciting a decrease in the TR-FRET ratio relative to DMSO control wells.

NCI-H358 (K-Ras G12C) = assay: CellTiter-Glo cell viability assay, NCI-H358; type: cell-based, human
Method in brief: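 After direct compound addition, plates were incubated to day 5 and equilibrated at room temperature for about 30 minutes before CellTiter-Glo reading. Values derive from luminescence relative to the DMSO mean, fitted with a four-parameter logistic model.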

[2] = test system: K-Ras G12C (NCI-H358 cells); assay: Potency assay: pERK in NCI-H358 cells; type: cell-based, human; settings: read-out: pERK EC50 (H358 KRAS G12C)
Method in brief: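 Cells plated the day before were exposed for 4 h at 37° C, 5% CO2 to a 10-point, 3-fold DMSO dilution series (10 mM top stock), in duplicate. Phospho-ERK was read by AlphaLISA SureFire Ultra or by In-Cell Western with DRAQ5 DNA stain, and IC50 came from a 4-parameter sigmoidal fit.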

[3] = test system: Capan-1 cells (K-Ras G12V); assay: CellTiter-Glo cell viability, Capan-1; type: cell-based, human; settings: Homo sapiens, CAPAN-1, 120 h, K-Ras G12V, 5-day treatment; read-out: Capan-1 Cell Viability IC50
Method in brief: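 Endpoint: CellTiter-Glo luminescence on day 5, following ~30 min at room temperature. Data as (sample/mean DMSO)×100, four-parameter logistic fit.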

[4] = Homo sapiens, NCI-H358, 120 h, 5-day treatment, read-out: H358 Cell Viability assay data (K-Ras G12C, IC50)
[5] = Homo sapiens, NCI-H358 cells, 4 hours
[6] = 5-day treatment, read-out: H358 Cell Viability assay data (K-Ras G12C, IC50)

Sequence of K-Ras G12C(GMP-PNP) binding to BRAF RBD (P01116 other isoform, or with tags, fused parts or gaps G12C): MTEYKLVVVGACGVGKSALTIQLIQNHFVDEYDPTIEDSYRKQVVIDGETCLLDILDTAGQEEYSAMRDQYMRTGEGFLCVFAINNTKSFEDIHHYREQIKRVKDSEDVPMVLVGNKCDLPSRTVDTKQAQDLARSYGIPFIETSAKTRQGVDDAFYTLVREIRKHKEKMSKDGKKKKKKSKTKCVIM
Sequence of K-Ras G12C(GMP-PNP) binding to BRAF RBD (P62937 whole entry): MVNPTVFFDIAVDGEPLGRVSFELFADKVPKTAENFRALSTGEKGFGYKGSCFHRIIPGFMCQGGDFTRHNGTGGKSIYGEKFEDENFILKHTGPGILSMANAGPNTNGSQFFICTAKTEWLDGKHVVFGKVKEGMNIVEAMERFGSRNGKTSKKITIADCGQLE

| IC50 ([1]; read-out: KRAS G12C FRET IC50) | IC50 (NCI-H358 (K-Ras G12C); [4]) | EC50 [2, 5] | Compound | further results |
| --- | --- | --- | --- | --- |
| 100 to 1000 nM | 0.1 to 1 µM | < 5 µM | CCn1c(-c2cccnc2[C@H](C)OC)c2c3cc(ccc31)-c1cc(O)cc(c1)C[C@H](NC(=O)[C@H](C(C)C)N(C)C(=O)[C@H]1CCN(C(=O)OC(C)C)C1)C(=O)N1CCC[C@H](N1)C(=O)OCC(C)(C)C2 [Compound A117] |  |
| < 10 nM | < 0.01 µM |  | CCn1c(-c2cccnc2[C@H](C)OC)c2c3cc(ccc31)-c1cc(O)cc(c1)C[C@H](NC(=O)[C@H](C(C)C)N(C)C(=O)[C@H]1CCN(C(=O)[C@@]3(C)CCCN3)C1)C(=O)N1CCC[C@H](N1)C(=O)OCC(C)(C)C2 [Compound A135] | IC50 (NCI-H358 (K-Ras G12C); [6]): 0.01 to 0.1 µM; IC50 [3]: 1000 to 10000 nM |
| 100 to 1000 nM | 0.1 to 1 µM |  | CCn1c(-c2cccnc2[C@H](C)OC)c2c3cc(ccc31)-c1cc(O)cc(c1)C[C@H](NC(=O)[C@H](C(C)C)N(C)C(=O)[C@H]1C[C@H]1C)C(=O)N1CCC[C@H](N1)C(=O)OCC(C)(C)C2 [Compound A146] |  |
| 10 to 100 nM | 0.01 to 0.1 µM | < 5 µM | CCn1c(-c2cccnc2[C@H](C)OC)c2c3cc(ccc31)-c1nc(cs1)C[C@H](NC(=O)[C@H](C(C)C)N(C)C(C)=O)C(=O)N1CCC[C@H](N1)C(=O)OCC(C)(C)C2 [Compound A152] |  |
| 1000 to 10000 nM | 0.1 to 1 µM | < 5 µM | CCn1c(-c2cccnc2[C@H](C)OC)c2c3cc(ccc31)-c1cc(O)cc(c1)C[C@H](NC(=O)[C@H](C(C)C)N(C)C(=O)N1CC(N(C)C)C1)C(=O)N1CCC[C@H](N1)C(=O)OCC(C)(C)C2 [Compound A171] |  |
| 10 to 100 nM | 0.01 to 0.1 µM | < 5 µM | CCn1c(-c2cccnc2[C@H](C)OC)c2c3cc(ccc31)-c1cc(O)cc(c1)C[C@H](NC(=O)[C@@H](NC(C)=O)C(C)(C)OC)C(=O)N1CCC[C@H](N1)C(=O)OCC(C)(C)C2 [Compound A172] |  |
| 1000 to 10000 nM | > 10 µM |  | CCn1c(-c2cccnc2[C@H](C)OC)c2c3cc(ccc31)-c1cc(O)cc(c1)C[C@H](NC(=O)[C@H](C(C)C)N(C)C(=O)C1NCCC13CC3)C(=O)N1CCC[C@H](N1)C(=O)OCC(C)(C)C2 (stereo partly shown) [Compound A228] |  |
| 10 to 100 nM | 0.01 to 0.1 µM |  | CCn1c(-c2cccnc2[C@H](C)OC)c2c3cc(ccc31)-c1csc(n1)C[C@H](NC(=O)[C@H](C(C)C)N(C)C(=O)[C@H]1CCCO1)C(=O)N1CCC[C@H](N1)C(=O)OCC(C)(C)C2 [Compound A238] |  |
| 1000 to 10000 nM | 0.1 to 1 µM |  | CCn1c(-c2cccnc2[C@H](C)OC)c2c3cc(ccc31)-c1csc(n1)C[C@H](NC(=O)[C@H](C(C)C)N(C)C(=O)N1CCC13CN(C)C3)C(=O)N1CCC[C@H](N1)C(=O)OCC(C)(C)C2 [Compound A274] |  |
| < 10 nM | < 0.01 µM | < 5 µM | CCn1c(-c2cccnc2[C@H](C)OC)c2c3cc(ccc31)-c1csc(n1)C[C@H](NC(=O)[C@H](C(C)C)N(C)C(=O)N1CCN(C(=O)CN(C)C)CC1)C(=O)N1CCC[C@H](N1)C(=O)OCC(C)(C)C2 [Compound A290] |  |
| 1000 to 10000 nM | > 10 µM |  | CCn1c(-c2cccnc2[C@H](C)OC)c2c3cc(ccc31)-c1csc(n1)C[C@H](NC(=O)[C@H](C(C)C)N(C)C(=O)N1C[C@H]3CN(C)C[C@H]3C1)C(=O)N1CCC[C@H](N1)C(=O)OCC(C)(C)C2 [Compound A313] |  |
| 100 to 1000 nM | 0.01 to 0.1 µM | < 5 µM | CCn1c(-c2cccnc2[C@H](C)OC)c2c3cc(ccc31)-c1csc(n1)C[C@H](NC(=O)[C@H](C(C)C)N(C)C(=O)N1CCCOCC1)C(=O)N1CCC[C@H](N1)C(=O)OCC(C)(C)C2 [Compound A335] |  |
| 100 to 1000 nM | 0.01 to 0.1 µM |  | CCn1c(-c2cccnc2[C@H](C)OC)c2c3cc(ccc31)-c1cc(C#N)cc(c1)C[C@H](NC(=O)[C@H](C(C)C)N(C)C(C)=O)C(=O)N1CCC[C@H](N1)C(=O)OCC(C)(C)C2 [Compound A430] |  |
| 1000 to 10000 nM | 0.01 to 0.1 µM |  | CCn1c(-c2cccnc2[C@H](C)OC)c2c3cc(ccc31)-c1csc(n1)C[C@H](NC(=O)[C@H](C(C)C)N(C)C(=O)N1CC3(CC(N(C)CCO)C3)C1)C(=O)N1CCC[C@H](N1)C(=O)OCC(C)(C)C2 [Compound A467] |  |
| 100 to 1000 nM | 0.01 to 0.1 µM |  | CCn1c(-c2cccnc2[C@H](C)OC)c2c3cc(ccc31)-c1csc(n1)C[C@H](NC(=O)[C@H](C(C)C)N(C)C(=O)N1CC[C@H]3CN(C)C[C@H]31)C(=O)N1CCC[C@H](N1)C(=O)OCC(C)(C)C2 [Compound A471] | IC50 [3]: 100 to 1000 nM |
| 10 to 100 nM | < 0.01 µM | < 5 µM | CCn1c(-c2cccnc2[C@H](C)OC)c2c3cc(ccc31)-c1csc(n1)C[C@H](NC(=O)[C@H](C(C)C)N(C)C(=O)N1CC3(CCN(C)CC3)C1)C(=O)N1CCC[C@H](N1)C(=O)OCC(C)(C)C2 [Compound A513] |  |
| 10 to 100 nM | < 0.01 µM | < 5 µM | CCn1c(-c2cccnc2[C@H](C)OC)c2c3cc(ccc31)-c1csc(n1)C[C@H](NC(=O)[C@H](C1CCCC1)N(C)C(=O)N1CCN(C)CC1)C(=O)N1CCC[C@H](N1)C(=O)OCC(C)(C)C2 [Compound A525] |  |
| 100 to 1000 nM | 0.1 to 1 µM |  | CCn1c(-c2cc(N3CCN(C)CC3)cnc2[C@H](C)OC)c2c3cc(ccc31)-c1cccc(c1)C[C@H](NC(=O)[C@H](C(C)C)N(C)C(=O)[C@@H]1OCC[C@@H]1c1ccccc1)C(=O)N1CCC[C@H](N1)C(=O)OCC(C)(C)C2 [Compound A562] |  |
|  | < 0.01 µM | < 5 µM | CCn1c(-c2cccnc2[C@H](C)OC)c2c3cc(ccc31)-c1csc(n1)C[C@H](NC(=O)[C@H](C(C)C)N(C)C(=O)N1CCC(N(C)C)CC1)C(=O)N1CCC[C@H](N1)C(=O)OCC(C)(C)C2 [Compound A571] | IC50 ([1]; KRAS G12C FRET IC50): 100 to 1000 nM |
| < 10 nM | < 0.01 µM | < 5 µM | CCn1c(-c2cccnc2[C@H](C)OC)c2c3cc(ccc31)-c1csc(n1)C[C@H](NC(=O)[C@H](C(C)C)N(C)C(=O)N1CCC13CCOCC3)C(=O)N1CCC[C@H](N1)C(=O)OCC(C)(C)C2 [Compound A601] |  |
| 100 to 1000 nM | 0.01 to 0.1 µM |  | CCn1c(-c2cccnc2[C@H](C)OC)c2c3cc(ccc31)-c1csc(n1)C[C@H](NC(=O)[C@H](C(C)C)N(C)C(=O)N1CC(C3CN(C)C3)C1)C(=O)N1CCC[C@H](N1)C(=O)OCC(C)(C)C2 [Compound A608] |  |

| Compound | IC50 ([1]; read-out: KRAS G12C FRET IC50) | IC50 (NCI-H358 (K-Ras G12C); [4]) | EC50 [2, 5] | further results |
| --- | --- | --- | --- | --- |
| CCn1c(-c2cccnc2[C@H](C)OC)c2c3cc(ccc31)-c1cc(O)cc(c1)C[C@H](NC(=O)[C@H](C(C)C)N(C)C(=O)C1(N)CC1)C(=O)N1CCC[C@H](N1)C(=O)OCC(C)(C)C2 [Compound A168] | 100 to 1000 nM |  |  | IC50 (NCI-H358 (K-Ras G12C); Homo sapiens, NCI-H358, 120 h, read-out: H358 Cell Viability assay data (K-Ras G12C, IC50, uM), 5-day treatment): 0.01 to 0.1 µM; EC50 ([2]; Homo sapiens, NCI-H358, 4 h): < 5 µM |
| CCO[C@@H]1c2nc(cs2)-c2ccc3c(c2)c(c(-c2cc([C@H]4CCN5CCOC[C@@H]5C4)cnc2[C@H](C)OC)n3CC)CC(C)(C)COC(=O)[C@@H]2CCCN(N2)C(=O)[C@H]1NC(=O)[C@H]1[C@H](C)[C@@H]1C [Compound A390, (1r,2R,3S)—N-((6^3S,3S,4S,Z)-3-ethoxy-1^1-ethyl-1^2-(2-((S)-1-methoxyethyl)-5-((8R,9aS)-octahydropyrido [2,1-c][1,4]oxazin-8-yl)pyridin-3-yl)-10,10-dimethyl-5,7-dioxo-6^1,6^2,6^3,6^4,6^5,6^6-hexahydro-1^1H-8-oxa-2 (4,2)-thiazola-1 (5,3)-indola-6 (1,3)-pyridazinacycloundecaphane-4-yl)-2,3-dimethylcyclopropane-1-carboxamide] | 100 to 1000 nM |  |  | IC50 (NCI-H358 (K-Ras G12C); [6]): 0.1 to 1 µM; EC50 ([2]; NCI-H358 cells, 4 hours): < 5 µM |
